Test results as given in patent US20110190379A1 (priority 2008, published 2011).
Values joined by “and” are separate entries in the source; they are usually repeats but may differ in a detail not shown here. Identical values can stand only once. Like-named read-outs stand apart in the source and are kept apart here.

How the values were obtained:
F. graminearum [1] = type: in vivo
F. graminearum [2] = details: in vivo
F. graminearum [3] = type: in vivo; remark: listed apart in the source
F. graminearum [4] = details: in vivo; remark: listed apart in the source
[5] = tested on: Arabidopsis seed germination; type: in vivo
wheat leaves = details: in vivo

silver ions
conidial production (F. graminearum [1]; in vivo): significantly reduced | lesion size (F. graminearum [1]; in vivo): did not markedly alter | AUDPC versus water treated heads (F. graminearum [2]): significantly lower | disease development reduced versus water (F. graminearum [2]): 12-88% | conidial production (F. graminearum [3]; in vivo): significantly reduced | lesion size (F. graminearum [3]; in vivo): did not markedly alter

C=C [ethylene]
lesion size (F. graminearum [1]; wheat (Hobbit 'sib') leaves, ethephon 50 mM or silver thiosulphate 150 μm in agar): did not markedly alter | conidial production (F. graminearum [1]; wheat leaves, 7 days, ET P=0.05, reduced ET perception (silver) P=0.003): significantly greater | conidial production (F. graminearum [4]): enhanced susceptibility | disease severity (F. graminearum [4]): enhanced susceptibility | lesion size (F. graminearum [3]; barley (Golden promise) leaves, ethephon 50 mM or silver thiosulphate 150 μm in agar): did not markedly alter | conidial production (F. graminearum [3]; barley leaves, 7 days, ET P=0.005, reduced ET perception (silver) P=0.043): significantly greater

CC1=C[C@H]2O[C@@H]3[C@H](O)C[C@](C)([C@@]2(CO)[C@H](O)C1=O)[C@]31CO1 [DON, deoxynivalenol]
effect on seed germination ([5]; FIG. 6): inhibits seed germination | cell death about the inoculation point (trypan blue) (wheat leaves): extensive cell death | size of lesions (DON-induced cell death) (wheat leaves): 0.127 cm^2 and 0.066 cm^2

C=C1C[C@]23C[C@@]1(O)CC[C@H]2[C@@]12C=C[C@H](O)[C@@](C)(C(=O)O1)[C@H]2[C@@H]3C(=O)O [GA, Gibberellic Acid]
effect on DON inhibition of seed germination ([5]; FIG. 7): can reverse the inhibitory effect of DON

silver thiosulphate
conidial production (F. graminearum [4]): enhanced resistance | disease severity (F. graminearum [4]): enhanced resistance
